ChEMBL document CHEMBL1151430, “Development of colistin-dependent Acinetobacter baumannii-Acinetobacter calcoaceticus complex” (2007)
Values after ≈ are worked out from the molar mass of the structure shown. Active and inactive are the calls of the source. No cut-off for these calls is given here.

What was measured:
[1] = system: Acinetobacter; experiment: Antimicrobial activity against Acinetobacter baumannii-Acinetobacter calcoaceticus complex isolated from diabetic patient with calcaneal osteomyelitis by broth microdilution assay; assay type: functional
[2] = system: Acinetobacter; experiment: Antimicrobial activity against 8 ug/ml colistin-subcultured Acinetobacter baumannii-Acinetobacter calcoaceticus complex isolated from diabetic patient with calcaneal osteomyelitis and bacteremia by broth microdilution assay; assay type: functional

GENTAMICIN
MIC [1]: > 8 µg/mL
MIC [2]: inactive

CN(C)c1cc(NC(=O)CNC(C)(C)C)c(O)c2c1C[C@H]1C[C@H]3[C@H](N(C)C)C(O)=C(C(N)=O)C(=O)[C@@]3(O)C(O)=C1C2=O [TIGECYCLINE]
MIC [1]: 2 µg/mL (≈ 3.41 µM)
MIC [2]: 0.12 µg/mL

NCC[C@H](O)C(=O)N[C@@H]1C[C@H](N)[C@@H](O[C@H]2O[C@H](CN)[C@@H](O)[C@H](O)[C@H]2O)[C@H](O)[C@H]1O[C@H]1O[C@H](CO)[C@@H](O)[C@H](N)[C@H]1O [AMIKACIN]
MIC [1]: 8 µg/mL (≈ 13.7 µM)
MIC [2]: inactive

CC[C@H]1OC(=O)[C@H](C)[C@@H](O[C@H]2C[C@@](C)(OC)[C@@H](O)[C@H](C)O2)[C@H](C)[C@@H](O[C@@H]2O[C@H](C)C[C@H](N(C)C)[C@H]2O)[C@](C)(O)C[C@@H](C)CN(C)[C@H](C)[C@@H](O)[C@]1(C)O [AZITHROMYCIN]
MIC [1]: 8 µg/mL (≈ 10.7 µM)
MIC [2]: inactive

POLYMYXIN B
MIC [1]: 1 µg/mL
MIC [2]: 4 µg/mL

CN(C)c1ccc(O)c2c1C[C@H]1C[C@H]3[C@H](N(C)C)C(O)=C(C(N)=O)C(=O)[C@@]3(O)C(O)=C1C2=O [MINOCYCLINE]
MIC [1]: 1 µg/mL (≈ 2.19 µM)
MIC [2]: inactive

O=C(O)[C@H]1/C(=C/CO)O[C@@H]2CC(=O)N21 [CLAVULANIC ACID]
MIC [1]: > 2 µg/mL
MIC [2]: inactive

CC(C)(O/N=C(\C(=O)N[C@@H]1C(=O)N2C(C(=O)[O-])=C(C[n+]3ccccc3)CS[C@H]12)c1csc(N)n1)C(=O)O [CEFTAZIDIME]
MIC [1]: > 64 µg/mL
MIC [2]: inactive

CC1(C)[C@H](C(=O)O)N2C(=O)C[C@H]2S1(=O)=O [SULBACTAM]
MIC [1]: > 64 µg/mL
MIC [2]: inactive

COLISTIN
MIC [1]: 1 µg/mL
MIC [2]: > 16 µg/mL

C[C@H]1c2cccc(O)c2C(=O)C2=C(O)[C@]3(O)C(=O)C(C(N)=O)=C(O)[C@@H](N(C)C)[C@@H]3[C@@H](O)[C@@H]21.O [DOXYCYCLINE]
MIC [1]: 8 µg/mL
MIC [2]: 1 µg/mL

CC1(C)S[C@@H]2[C@H](NC(=O)[C@H](C(=O)O)c3ccsc3)C(=O)N2[C@H]1C(=O)O [TICARCILLIN]
MIC [1]: > 256 µg/mL
MIC [2]: inactive

C[C@@H](O)[C@H]1C(=O)N2C(C(=O)O)=C(SCCNC=N)C[C@H]12 [IMIPENEM ANHYDROUS]
MIC [1]: 16 µg/mL (≈ 53.4 µM)
MIC [2]: inactive

CC1(C)S[C@@H]2[C@H](NC(=O)[C@H](N)c3ccccc3)C(=O)N2[C@H]1C(=O)O [AMPICILLIN]
MIC [1]: > 8 µg/mL
MIC [2]: inactive
